Measured values: ChEMBL document CHEMBL3880437, “Modulators of the prostacyclin (PGI2) receptor useful for the treatment of disorders related thereto” (2014)
Calls of active or inactive are those of the source. No cut-off for these calls is given here.

Legend:
Platelet = test: Inhibition of ADP-induced platelet aggregation in human platelet rich plasma pre-incubated for 1 min before ADP addition and measured 3 mins post ADP addition by aggregometry; type: functional
[1] = Stability of the compound in Cremophor RH40 assessed as observable compound degradation after 4 weeks in glass vial at 50 degC; type: physicochemical; conditions: 672 h
[2] = Stability of the compound in Imwitor 742 assessed as observable compound degradation after 4 weeks in glass vial at 50 degC; type: physicochemical; conditions: 672 h
[3] = Stability of the compound in TPGS 1000 assessed as observable compound degradation after 4 weeks in glass vial at 50 degC; type: physicochemical; conditions: 672 h
[4] = Stability of the compound in Cremophor RH40 assessed as observable API assay loss after 4 weeks in glass vial at 50 degC; type: physicochemical; conditions: 672 h
[5] = Stability of the compound in Imwitor 742 assessed as observable API assay loss after 4 weeks in glass vial at 50 degC; type: physicochemical; conditions: 672 h
[6] = Stability of the compound in TPGS 1000 assessed as observable API assay loss after 4 weeks in glass vial at 50 degC; type: physicochemical; conditions: 672 h
[7] = Terminal phase half life in Sprague-Dawley rat at 1.25 mg/kg, po after 0.1 to 21 hrs by LC/MS/MS method; type: ADME, organism-based; conditions: in vivo, read-out: beta t1/2 (converted)
[8] = Drug level in bile-duct cannulated male Sprague-Dawley rat treated with sodium 2-(((1r,4r)-4-(((4- Chlorophenyl)(phenyl)carbamoyloxy)methyl)cyclo- hexyl)methoxy)acetate assessed as compound formation at 2 mg/kg, iv; type: ADME, organism-based; conditions: in vivo
[9] = Drug level in bile-duct cannulated male Sprague-Dawley rat treated with sodium 2-(((1r,4r)-4-(((4- Chlorophenyl)(phenyl)carbamoyloxy)methyl)cyclo- hexyl)methoxy)acetate assessed as compound formation in bile at 2 mg/kg, iv; type: ADME, organism-based; conditions: in vivo
[10] = Drug level in bile-duct cannulated male Sprague-Dawley rat treated with sodium 2-(((1r,4r)-4-(((4- Chlorophenyl)(phenyl)carbamoyloxy)methyl)cyclo-hexyl)methoxy)acetate assessed as compound formation in urine at 2 mg/kg, iv; type: ADME, organism-based; conditions: in vivo
Rattus norvegicus [11] = test: Cmax in Sprague-Dawley rat assessed as 2-(((1r,4r)-4-(((4-Chlorophenyl)(phenyl)carbamoy-loxy)methyl)cyclohexyl)methoxy)acetic acid level at 1.25 mg/kg, po after 2.67 hrs by LC/MS/MS method; type: ADME, organism-based; design: dose 1.25 mg/kg, route oral; conditions: in vivo
[12] = Terminal phase half life in Sprague-Dawley rat assessed as 2-(((1r,4r)-4-(((4-Chlorophenyl)(phenyl)carbamoy-loxy)methyl)cyclohexyl)methoxy)acetic acid level at 1.25 mg/kg, po after 0.1 to 21 hrs by LC/MS/MS method; type: ADME, organism-based; conditions: in vivo
Rattus norvegicus [13] = test: Tmax in Sprague-Dawley rat assessed as 2-(((1r,4r)-4-(((4-Chlorophenyl)(phenyl)carbamoy-loxy)methyl)cyclohexyl)methoxy)acetic acid level at 1.25 mg/kg, po by LC/MS/MS method; type: ADME, organism-based; conditions: in vivo
Rattus norvegicus [14] = test: AUC(last) in Sprague-Dawley rat assessed as 2-(((1r,4r)-4-(((4-Chlorophenyl)(phenyl)carbamoy-loxy)methyl)cyclohexyl)methoxy)acetic acid level at 1.25 mg/kg, po after 0.1 to 21 hrs by LC/MS/MS method; type: ADME, organism-based; design: dose 1.25 mg/kg, route oral, time 0 - last; conditions: in vivo
Rattus norvegicus [15] = test: Tmax in Sprague-Dawley rat assessed as 2-(((1r,4r)-4-(((4-Chlorophenyl)(phenyl)carbamoy-loxy)methyl)cyclohexyl)methoxy)acetic acid level at 10 mg/kg, po by LC/MS/MS method; type: ADME, organism-based; conditions: in vivo
Rattus norvegicus [16] = test: Inhibition of right ventricle hypertrophic response to monocrotaline-induced pulmonary arterial hypertension assessed as ratio of right ventricular weight to left ventricle plus septum in Wistar rat at 30 mg/kg administered through oral gavage twice daily for 21 consecutive days starting 24 hrs after monocrotaline challenge; type: functional, organism-based
[17] = Solubility of the compound in corn oil; type: physicochemical
[18] = Solubility of the compound in Safflower oil; type: physicochemical
[19] = Solubility of the compound in Labrasol; type: physicochemical
[20] = Solubility of the compound in Cremophor RH40; type: physicochemical
[21] = Solubility of the compound in Imwitor 742; type: physicochemical
[22] = Solubility of the compound in TPGS 1000; type: physicochemical
[23] = Solubility of the compound in Gelucire 44/14; type: physicochemical
[24] = Solubility of the compound in PEG400; type: physicochemical
[25] = Solubility of the compound in Lauroglycol 90; type: physicochemical
[26] = Solubility of the compound in PEG6000; type: physicochemical
[27] = Solubility of the compound in Gelucire 50/13; type: physicochemical
Prostacyclin receptor = Prostacyclin receptor (Homo sapiens, UniProt P43119); test: Agonist activity at human recombinant prostacyclin receptor expressed in CHO-K1 cells assessed as induction of cAMP accumulation incubated for 1 hr by HTRF assay; type: functional, cell-based
Chain of Prostacyclin receptor (P43119 whole entry): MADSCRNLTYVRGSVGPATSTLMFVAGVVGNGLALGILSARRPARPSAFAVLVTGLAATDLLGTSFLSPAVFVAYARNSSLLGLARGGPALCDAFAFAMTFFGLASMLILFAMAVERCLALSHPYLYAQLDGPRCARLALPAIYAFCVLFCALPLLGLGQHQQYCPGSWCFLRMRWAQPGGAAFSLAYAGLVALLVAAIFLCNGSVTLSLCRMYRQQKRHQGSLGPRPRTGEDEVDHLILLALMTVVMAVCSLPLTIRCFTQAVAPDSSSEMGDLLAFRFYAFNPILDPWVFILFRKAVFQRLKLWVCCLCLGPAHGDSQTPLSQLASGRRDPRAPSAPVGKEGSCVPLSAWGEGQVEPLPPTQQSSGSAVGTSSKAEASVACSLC

SMILES	IC50 (Platelet) [nM]	EC50 (Prostacyclin receptor) [nM]	also measured
O=C(O)COC[C@H]1CC[C@H](COC(=O)N(c2ccccc2)c2ccc(Cl)cc2)CC1 [listing 1 of 2 here]	10.5 to 1590	–	Stability [1]: Stable; Stability [2]: Stable; Stability [3]: Stable; Stability [4]: Stable; Stability [5]: Stable; Stability [6]: Stable
O=C(COC[C@H]1CC[C@H](COC(=O)N(c2ccccc2)c2ccc(Cl)cc2)CC1)NCCS(=O)(=O)O	10.5 to 1590	–	half-life [7]: 3.51 h; Drug metabolism [8]: Metabolite_Detected; Drug metabolism [9]: Metabolite_Detected; Drug metabolism [10]: Metabolite_Notdetected; Cmax (Rattus norvegicus [11]): 214 ng/mL; beta t1/2 [12]: 3.24 h; Tmax (Rattus norvegicus [13]): 2.67 h; AUClast (Rattus norvegicus [14]): 935 ng·h/mL; Tmax (Rattus norvegicus [15]): 1.5 h
O=C(O)COC[C@H]1CC[C@H](COC(=O)N(c2ccccc2)c2cccc(F)c2)CC1	10.5 to 1590	–	Activity (Rattus norvegicus [16]): Active
O=C([O-])COC[C@H]1CC[C@H](COC(=O)N(c2ccccc2)c2ccc(Cl)cc2)CC1.[Na+]	–	–	solubility [17]: < 100 µg/mL; solubility [18]: < 100 µg/mL; solubility [19]: 12980 µg/mL; solubility [20]: 7820 µg/mL; solubility [21]: 16200 µg/mL; solubility [22]: 2550 µg/mL; solubility [23]: 1610 µg/mL; solubility [24]: 4850 µg/mL; solubility [25]: 260 µg/mL; solubility [26]: < 10000 µg/mL; solubility [27]: < 10000 µg/mL
O=C(O)COC[C@H]1CC[C@H](CNC(=O)N(c2ccccc2)c2ccc(Cl)c(F)c2)CC1	10.5 to 1590	2.7 to 2650	–
O=C(O)COC[C@H]1CC[C@H](COC(=O)N(c2ccc(F)cc2)c2ccc(OC(F)(F)F)cc2)CC1	10.5 to 1590	2.7 to 2650	–
O=C(O)COC[C@H]1CC[C@H](CNC(=O)N(c2ccccc2)c2ccc(F)cc2)CC1	10.5 to 1590	2.7 to 2650	–
O=C(O)COC[C@H]1CC[C@H](COC(=O)N(c2cccc(F)c2)c2cnccn2)CC1	10.5 to 1590	2.7 to 2650	–
Cc1ccc(N(C(=O)NC[C@H]2CC[C@H](COCC(=O)O)CC2)c2ccc(C)cc2)cc1	10.5 to 1590	2.7 to 2650	–
COc1ccc(N(C(=O)NC[C@H]2CC[C@H](COCC(=O)O)CC2)c2ccccc2)c(C)c1	10.5 to 1590	2.7 to 2650	–
Cc1ccc(N(C(=O)OC[C@H]2CC[C@@H](COCC(=O)O)CC2)c2ccccc2)cc1	10.5 to 1590	2.7 to 2650	–
Cc1cccc(N(C(=O)OC[C@H]2CC[C@H](COCC(=O)O)CC2)c2cccc(F)c2)c1	10.5 to 1590	2.7 to 2650	–
COc1ccc(N(C(=O)OC[C@H]2CC[C@@H](COCC(=O)O)CC2)c2ccccc2)cc1	10.5 to 1590	2.7 to 2650	–
CCOc1ccc(N(C(=O)OC[C@H]2CC[C@H](COCC(=O)O)CC2)c2ccc(F)cc2)cc1	10.5 to 1590	2.7 to 2650	–
COc1cccc(N(C(=O)OC[C@H]2CC[C@H](COCC(=O)O)CC2)c2cccc(F)c2)c1	10.5 to 1590	2.7 to 2650	–
O=C(O)COC[C@H]1CC[C@H](COC(=O)N(c2ccccc2)c2ccc(F)c(Cl)c2)CC1	10.5 to 1590	2.7 to 2650	–
O=C(O)COC[C@H]1CC[C@H](COC(=O)Nc2ccccc2)CC1	10.5 to 1590	2.7 to 2650	–

SMILES	IC50 (Platelet) [nM]	EC50 (Prostacyclin receptor) [nM]	also measured
O=C(O)COC[C@H]1CC[C@H](COC(=O)N(c2ccccc2)c2cc(F)cc(F)c2)CC1	10.5 to 1590	2.7 to 2650	–
O=C(O)COC[C@H]1CC[C@H](COC(=O)N(c2cccc(F)c2)c2cccc(F)c2)CC1	10.5 to 1590	2.7 to 2650	–
O=C(O)COC[C@H]1CC[C@H](CNC(=O)N(c2ccccc2)c2cc(F)cc(F)c2)CC1	10.5 to 1590	2.7 to 2650	–
Cc1ccc(N(C(=O)OC[C@H]2CC[C@H](COCC(=O)O)CC2)c2cccc(F)c2)cc1F	10.5 to 1590	2.7 to 2650	–
COc1ccc(N(C(=O)NC[C@H]2CC[C@H](COCC(=O)O)CC2)c2ccccc2)cc1	10.5 to 1590	2.7 to 2650	–
O=C(O)COC[C@H]1CC[C@H](CNC(=O)N(c2ccccc2)c2cccc(Cl)c2F)CC1	10.5 to 1590	2.7 to 2650	–
O=C(O)COC[C@H]1CC[C@H](COC(=O)N(c2ccc(F)nc2)c2cccc(F)c2)CC1	10.5 to 1590	2.7 to 2650	–
COc1cncc(N(C(=O)OC[C@H]2CC[C@H](COCC(=O)O)CC2)c2ccccc2)c1	10.5 to 1590	2.7 to 2650	–
O=C(O)COC[C@H]1CC[C@H](COC(=O)N(c2ccc(F)cc2)c2ccc(F)cc2)CC1	10.5 to 1590	2.7 to 2650	–
O=C(O)COC[C@H]1CC[C@H](COC(=O)N(c2ccccc2)c2cnccn2)CC1	10.5 to 1590	2.7 to 2650	–
O=C(O)COC[C@H]1CC[C@H](COC(=O)N(c2ccccc2)c2ccc(Cl)cn2)CC1	10.5 to 1590	2.7 to 2650	–
Cc1cnc(N(C(=O)OC[C@H]2CC[C@H](COCC(=O)O)CC2)c2ccccc2)s1	10.5 to 1590	2.7 to 2650	–
O=C(O)COC[C@H]1CC[C@H](COC(=O)N(c2ccccc2)c2ccc(Cl)cc2)CC1 [listing 2 of 2 here]	–	–	Activity (Rattus norvegicus [16]): Active
Cc1cccc(N(C(=O)OC[C@H]2CC[C@@H](COCC(=O)O)CC2)c2ccccc2)c1	10.5 to 1590	2.7 to 2650	–
CN(C[C@H]1CC[C@H](COCC(=O)O)CC1)C(=O)N(c1ccccc1)c1ccccc1	10.5 to 1590	2.7 to 2650	–
Cc1cc(C)cc(N(C(=O)OC[C@H]2CC[C@H](COCC(=O)O)CC2)c2cccc(F)c2)c1	10.5 to 1590	2.7 to 2650	–
O=C(O)COC[C@H]1CC[C@H](COC(=O)N(c2ccccc2)c2cc(F)cc(Cl)c2)CC1	10.5 to 1590	2.7 to 2650	–
